# Experimental data reported in patent publication US11633551B2, “Gaseous nitric oxide delivery system and methods of use” (Hansen Pharmaceutical, LLC, priority 2014, dated 2023).
# Values joined by “and” are separate entries in the source; they are usually repeats but may differ in a detail not shown here. Equal values may be shown once.
# Experiments:
# Type in all cases: cell-based
# [1] = test system: Acinetobacter baumannii (ATCC #BAA-747); test: Skin sample infection assay, 3 hours infection, bioburden after gNO; conditions: 1% gNO at 1 ATM (14.695 psi) for 90 minutes, flow rate 0.1 liters/minute; skin samples infected for 3 hours; FIG. 4
# Protocol: (§1) FIG. 4 is a graph illustrating the effects of NO treatment on bioburden using an infection assay, after three hours of infection, according to an embodiment of the present disclosure. Skin samples infected for 3 hours with Staphylococcus, MRSA, Acinetobacter or Pseudomonas and subsequently exposed to 1% gNO at 1 ATM (14.695 psi) for 90 minutes at a flow rate of 0.1 liters/minute. Staphylococcus aureus, subspecies aureus Rosenbach (ATCC #12600); Staphylococcus aureus, subspecies aureus Rosenbach (ATCC #33591), methicillin-resistant strain of Staphylococcus aureus, phage type 92; Acinetobacter baumannii (ATCC #BAA-747); and Pseudomonas aeruginosa (ATTC #BAA-47). Control=infected, untreated tissue. Three sets of triplicates were performed per experiment.
# [2] = test system: Pseudomonas aeruginosa (ATTC #BAA-47); test: as above; conditions: 1% gNO at 1 ATM (14.695 psi) for 90 minutes, flow rate 0.1 liters/minute; skin samples infected for 3 hours; FIG. 4
# Protocol: as §1
# [3] = test system: MRSA, methicillin-resistant strain of Staphylococcus aureus (ATCC #33591); test: as above; conditions: 1% gNO at 1 ATM (14.695 psi) for 90 minutes, flow rate 0.1 liters/minute; skin samples infected for 3 hours; FIG. 4
# Protocol: as §1
# [4] = test system: Staphylococcus aureus, subspecies aureus Rosenbach (ATCC #12600); test: as above; conditions: 1% gNO at 1 ATM (14.695 psi) for 90 minutes, flow rate 0.1 liters/minute; skin samples infected for 3 hours; FIG. 4
# Protocol: as §1
# cells = test: MTT assay of cell viability after gNO administration; conditions: pressurized gNO at about 0.15 ATM (2.2 psi) for about 105 minutes
# Protocol: Additionally, MTT assays were performed to assess cell viability after gNO administration. MTT assays are colorimetric-based assays used to assess cell viability as a function of color variation. As illustrated below in Table 2, cell viability after the administration of pressurized gNO at about 0.15 ATM (2.2 psi) for about 105 minutes varied from about 40%-50%.
# S. aureus = test: Colony counts after pressurized gNO, 24 hours infection, Franz cell (3-Ring) or Leg Device; conditions: 1% gNO after 24 hours of infection
# Protocol: Experiments were also conducted to determine the infection-reducing capability of gNO administration at various pressures below 1.0 ATM (14.695 psi) (independent of and in addition to the pressure applied by the external environment) using both a Franz cell tissue culture device (i.e., 3-Ring) and a portable gNO deliver device (i.e., Leg Device). The results of one set of experiments are illustrated below in Table 1. gNO was administered at a 1% concentration after 24 hours of infection with S. aureus. Flow Rates (cm^3/min or cc) varied from about 100 to about 1500, Purge Flow (liters/min or LPM) varied from about 0.1 to about 1.5, and gNO Exposure Time varied between about 45 minutes to about 105 minutes among the different treatment groups and controls. Colony counts (log CFU) were performed at various dilutions, which are represented in the last eight columns labeled 0, 1×10^−1 through 1×10^−7 (“0” indicates no dilution).
# [5] = Trial 0.15 ATM, 3-Ring, purge flow 0.1 LPM, flow rate 100 cc, 0.15 ATM, 105 min
# [6] = Trial 0.25 ATM, 3-Ring, purge flow 0.1 LPM, flow rate 100 cc, 0.25 ATM, 90 min
# [7] = Trial 0.5 ATM, 3-Ring, purge flow 0.1 LPM, flow rate 100 cc, 0.5 ATM, 90 min
# [8] = Trial 0.5 ATM, Leg Device, purge flow 1.0 LPM, flow rate 500 cc, 0.5 ATM, 45 min
# [9] = Trial 9 attempt, 3-Ring, purge flow 0.1 LPM, flow rate 100 cc, 0.25 ATM, 90 min
# [10] = Trial Calf, Leg Device, purge flow 0.1 LPM, flow rate 100 cc, 0.5 ATM, 90 min
# [11] = Trial Heel, Leg Device, purge flow 0.1 LPM, flow rate 100 cc, 0.5 ATM, 90 min
# [12] = Trial Leg 1, Leg Device, purge flow 1.5 LPM, flow rate 1500 cc, 1 ATM, 90 min
# [13] = Trial Leg 2, Leg Device, purge flow 1.5 LPM, flow rate 100 cc, 0.5 ATM, 90 min
# [14] = Trial Leg purge, Leg Device, purge flow 0.5 LPM, flow rate 100 cc, 0.25 ATM, 90 min
# [15] = Trial Toe, Leg Device, purge flow 0.1 LPM, flow rate 100 cc, 0.5 ATM, 90 min
# [16] = Trial d Pressure, Leg Device, purge flow 0.1 LPM, flow rate 100 cc, 0.5 ATM, 45 min
smiles,measurement,setting,value
"[N]=O [gNO, Nitric Oxide]",Reduction of bioburden,[1],nearly completely eradicated
same,Reduction of bioburden,[2],nearly completely eradicated
same,Reduction of bioburden,[3],nearly completely eradicated
same,Reduction of bioburden,[4],5 fold
same,% Viability,cells; control = 100,44.7% and 44.2% and 39.9%
same,Cell viability,cells; summary of Table 2,40%-50%
same,"Colony counts, 1 × 10−5 dilution",S. aureus; [5],0 log CFU
same,"Colony counts, 1 × 10−6 dilution",S. aureus; [5],0 log CFU
same,"Colony counts, 1 × 10−7 dilution",S. aureus; [5],0 log CFU
same,"Colony counts, 1 × 10−5 dilution",S. aureus; [6],0 log CFU
same,"Colony counts, 1 × 10−6 dilution",S. aureus; [6],0 log CFU
same,"Colony counts, 1 × 10−7 dilution",S. aureus; [6],0 log CFU
same,"Colony counts, 1 × 10−2 dilution",S. aureus; [7],0 log CFU
same,"Colony counts, 1 × 10−3 dilution",S. aureus; [7],0 log CFU
same,"Colony counts, 1 × 10−4 dilution",S. aureus; [7],0 log CFU
same,"Colony counts, 1 × 10−5 dilution",S. aureus; [7],0 log CFU
same,"Colony counts, 1 × 10−6 dilution",S. aureus; [7],0 log CFU
same,"Colony counts, 1 × 10−7 dilution",S. aureus; [7],0 log CFU
same,"Colony counts, 0 (no dilution)",S. aureus; [8],0 log CFU
same,"Colony counts, 1 × 10−1 dilution",S. aureus; [8],0 log CFU
same,"Colony counts, 1 × 10−2 dilution",S. aureus; [8],0 log CFU
same,"Colony counts, 1 × 10−3 dilution",S. aureus; [8],0 log CFU
same,"Colony counts, 1 × 10−4 dilution",S. aureus; [8],0 log CFU
same,"Colony counts, 1 × 10−5 dilution",S. aureus; [8],0 log CFU
same,"Colony counts, 1 × 10−6 dilution",S. aureus; [8],0 log CFU
same,"Colony counts, 1 × 10−7 dilution",S. aureus; [8],0 log CFU
same,"Colony counts, 0 (no dilution)",S. aureus; [9],TNTC
same,"Colony counts, 1 × 10−1 dilution",S. aureus; [9],TNTC
same,"Colony counts, 1 × 10−2 dilution",S. aureus; [9],TNTC
same,"Colony counts, 0 (no dilution)",S. aureus; [10],0 log CFU
same,"Colony counts, 1 × 10−1 dilution",S. aureus; [10],0 log CFU
same,"Colony counts, 1 × 10−2 dilution",S. aureus; [10],0 log CFU
same,"Colony counts, 1 × 10−3 dilution",S. aureus; [10],0 log CFU
same,"Colony counts, 1 × 10−4 dilution",S. aureus; [10],0 log CFU
same,"Colony counts, 1 × 10−5 dilution",S. aureus; [10],0 log CFU
same,"Colony counts, 1 × 10−6 dilution",S. aureus; [10],0 log CFU
same,"Colony counts, 1 × 10−7 dilution",S. aureus; [10],0 log CFU
same,"Colony counts, 0 (no dilution)",S. aureus; [11],0 log CFU
same,"Colony counts, 1 × 10−1 dilution",S. aureus; [11],0 log CFU
same,"Colony counts, 1 × 10−2 dilution",S. aureus; [11],0 log CFU
same,"Colony counts, 1 × 10−3 dilution",S. aureus; [11],0 log CFU
same,"Colony counts, 1 × 10−4 dilution",S. aureus; [11],0 log CFU
same,"Colony counts, 1 × 10−5 dilution",S. aureus; [11],0 log CFU
same,"Colony counts, 1 × 10−6 dilution",S. aureus; [11],0 log CFU
same,"Colony counts, 1 × 10−7 dilution",S. aureus; [11],0 log CFU
same,"Colony counts, 0 (no dilution)",S. aureus; [12],0 log CFU
same,"Colony counts, 1 × 10−1 dilution",S. aureus; [12],0 log CFU
same,"Colony counts, 1 × 10−2 dilution",S. aureus; [12],0 log CFU
same,"Colony counts, 1 × 10−3 dilution",S. aureus; [12],0 log CFU
same,"Colony counts, 1 × 10−4 dilution",S. aureus; [12],0 log CFU
same,"Colony counts, 1 × 10−5 dilution",S. aureus; [12],0 log CFU
same,"Colony counts, 1 × 10−6 dilution",S. aureus; [12],0 log CFU
same,"Colony counts, 1 × 10−7 dilution",S. aureus; [12],0 log CFU
same,"Colony counts, 0 (no dilution)",S. aureus; [13],0 log CFU
same,"Colony counts, 1 × 10−1 dilution",S. aureus; [13],0 log CFU
same,"Colony counts, 1 × 10−2 dilution",S. aureus; [13],0 log CFU
same,"Colony counts, 1 × 10−3 dilution",S. aureus; [13],0 log CFU
same,"Colony counts, 1 × 10−4 dilution",S. aureus; [13],0 log CFU
same,"Colony counts, 1 × 10−5 dilution",S. aureus; [13],0 log CFU
same,"Colony counts, 1 × 10−6 dilution",S. aureus; [13],0 log CFU
same,"Colony counts, 1 × 10−7 dilution",S. aureus; [13],0 log CFU
same,"Colony counts, 0 (no dilution)",S. aureus; [14],0 log CFU
same,"Colony counts, 1 × 10−1 dilution",S. aureus; [14],0 log CFU
same,"Colony counts, 1 × 10−2 dilution",S. aureus; [14],0 log CFU
same,"Colony counts, 1 × 10−3 dilution",S. aureus; [14],0 log CFU
same,"Colony counts, 1 × 10−4 dilution",S. aureus; [14],0 log CFU
same,"Colony counts, 0 (no dilution)",S. aureus; [15],0 log CFU
same,"Colony counts, 1 × 10−1 dilution",S. aureus; [15],0 log CFU
same,"Colony counts, 1 × 10−2 dilution",S. aureus; [15],0 log CFU
same,"Colony counts, 1 × 10−3 dilution",S. aureus; [15],0 log CFU
same,"Colony counts, 1 × 10−4 dilution",S. aureus; [15],0 log CFU
same,"Colony counts, 1 × 10−5 dilution",S. aureus; [15],0 log CFU
same,"Colony counts, 1 × 10−6 dilution",S. aureus; [15],0 log CFU
same,"Colony counts, 1 × 10−7 dilution",S. aureus; [15],0 log CFU
same,"Colony counts, 0 (no dilution)",S. aureus; [16],TNTC
same,"Colony counts, 1 × 10−1 dilution",S. aureus; [16],TNTC
same,"Colony counts, 1 × 10−2 dilution",S. aureus; [16],TNTC
same,"Colony counts, 1 × 10−3 dilution",S. aureus; [16],TNTC
same,Reduction of bioburden (summary of Table 1),"S. aureus; pressures as low as about 0.15 ATM (2.2 psi), exposure times of about 105 minutes",total kill
